Laboratory results as given in ChEMBL document CHEMBL1150639, “Antiplasmodial compounds from Cochlospermum tinctorium” (J Nat Prod, 2002).

System: Plasmodium falciparum
Experiment: Antiplasmodial activity against chloroquine-sensitive Plasmodium falciparum 3D7
Assay type: functional, organism-based

Structure (SMILES)	IC50
CCCCCCCCCCCC(=O)CCO	68 µM
C=C(C)[C@@H]1CC[C@]2(C(=O)O)CC[C@]3(C)[C@H](CC[C@@H]4[C@@]5(C)C[C@@H](O)[C@H](O)C(C)(C)[C@@H]5CC[C@]43C)[C@@H]12 [ALPHITOLIC ACID]	35 µM
